Results on one compound are retold here after ChEMBL document CHEMBL5143564, “PES derivative PESA is a potent tool to globally profile cellular targets of PES” (Bioorg Med Chem Lett, 2022).

Series [1] deals with T1, Thioredoxin-dependent peroxide reductase, mitochondrial (Homo sapiens) (UniProt P30048).
T1 sequence (whole entry): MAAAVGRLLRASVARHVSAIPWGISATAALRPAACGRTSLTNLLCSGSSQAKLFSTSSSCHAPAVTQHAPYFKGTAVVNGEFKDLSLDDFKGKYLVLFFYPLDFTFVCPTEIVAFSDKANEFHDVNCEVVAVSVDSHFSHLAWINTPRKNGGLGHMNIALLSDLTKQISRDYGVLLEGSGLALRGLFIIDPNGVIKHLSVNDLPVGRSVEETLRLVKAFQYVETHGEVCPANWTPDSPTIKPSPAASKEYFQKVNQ
Nature of the series: Binding affinity to PRDX3 in human DOHH-2 cells measured after 6 hrs by pull-down assay. In kind it is cell-based. The settings on record: DDE = dose-dependent effect.

For series [2], the species on record is Homo sapiens. Nature of the series: Binding affinity to ADP-bound full-length human HSP70 assessed as Cys574 adduct formation at SBDalpha domain by LC-MS/MS analysis.
The subject of series [3] is DOHH-2. Nature of the series: Induction of autophagy in human DOHH-2 cells assessed as reduction in p62 expression at 0.5 to 8 uM measured after 24 hrs by Western blot analysis. The class given is functional, cell-based. The settings on record: dose 0.5-8 µM. Background: A western blot detects proteins with antibodies after separation by electrophoresis.
Series [4] has as its target T2, Glutathione S-transferase omega-1 (Homo sapiens) (UniProt P78417).
T2 sequence (whole entry): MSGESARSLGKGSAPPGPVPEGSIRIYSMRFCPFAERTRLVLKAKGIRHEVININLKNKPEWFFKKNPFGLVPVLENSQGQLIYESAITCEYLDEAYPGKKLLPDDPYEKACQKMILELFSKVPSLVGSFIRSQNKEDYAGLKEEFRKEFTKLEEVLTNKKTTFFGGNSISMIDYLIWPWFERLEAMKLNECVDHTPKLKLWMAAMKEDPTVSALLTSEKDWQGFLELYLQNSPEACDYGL
Nature of the series: Binding affinity to GSTO1 in human DOHH-2 cells by MS analysis. The class given is cell-based.

Series [5] is filed under the species Homo sapiens. Nature of the series: Binding affinity to human HSP70 SBDalpha domain (537 to 610 residues) C574S mutant assessed as Cys603 adduct formation by size exclusion chromatography. On the technique in general: SEC sorts molecules by how far they enter the pores of the column.
Series [6] deals with Elongation factor 2 (Homo sapiens) (UniProt P13639). Nature of the series: Binding affinity to elongation factor 2 in human DOHH-2 cells by MS analysis. The class given is cell-based.
The target of series [7] is T3, Peroxiredoxin-5, mitochondrial (Homo sapiens) (UniProt P30044).
T3 sequence (whole entry): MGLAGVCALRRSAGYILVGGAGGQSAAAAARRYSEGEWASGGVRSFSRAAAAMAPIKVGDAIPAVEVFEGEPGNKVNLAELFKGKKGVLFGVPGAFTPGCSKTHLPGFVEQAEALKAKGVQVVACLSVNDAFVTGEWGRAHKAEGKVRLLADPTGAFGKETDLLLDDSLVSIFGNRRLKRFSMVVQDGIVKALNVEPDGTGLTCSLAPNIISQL
Nature of the series: Binding affinity to PRDX5 in human MDA-MB-453 cells measured after 6 hrs by pull-down assay. In kind it is cell-based. As to conditions: dose <= 20.0 µM, DDE = dose-dependent effect.

Series [8] concerns the target Glutathione S-transferase 3, mitochondrial (Homo sapiens) (UniProt O14880). Nature of the series: Binding affinity to MGST3 in human DOHH-2 cells by MS analysis. The class given is cell-based.
A short description of series [9]: GSH reactivity in pH 7.4 buffer assessed as GSH adduct formation by measuring half life at 50 uM by near-UV absorbance spectra analysis. As to conditions: pH 7.4, 50 µM. The class given is physicochemical.
In series [10] the target is T4, D-3-phosphoglycerate dehydrogenase (Homo sapiens) (UniProt O43175).
T4 sequence (whole entry): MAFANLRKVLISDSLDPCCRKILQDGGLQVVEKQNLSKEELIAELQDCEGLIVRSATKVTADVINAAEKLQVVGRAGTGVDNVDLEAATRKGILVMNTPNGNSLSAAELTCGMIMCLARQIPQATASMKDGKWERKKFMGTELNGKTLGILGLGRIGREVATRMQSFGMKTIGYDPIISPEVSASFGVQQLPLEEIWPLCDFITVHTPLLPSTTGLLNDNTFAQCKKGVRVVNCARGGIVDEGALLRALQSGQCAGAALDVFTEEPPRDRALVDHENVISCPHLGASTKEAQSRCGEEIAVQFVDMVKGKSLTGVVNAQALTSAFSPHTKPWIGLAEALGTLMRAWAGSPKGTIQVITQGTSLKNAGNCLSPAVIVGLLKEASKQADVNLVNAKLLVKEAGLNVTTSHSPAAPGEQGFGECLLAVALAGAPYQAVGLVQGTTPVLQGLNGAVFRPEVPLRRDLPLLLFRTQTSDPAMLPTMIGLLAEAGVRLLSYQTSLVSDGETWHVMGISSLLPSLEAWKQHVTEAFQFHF
Nature of the series: Binding affinity to D-3-phosphoglycerate dehydrogenase in human DOHH-2 cells measured after 6 hrs by pull-down assay. The class given is cell-based. As to conditions: DDE = dose-dependent effect.

Series [11] has as its system DOHH-2. Nature of the series: Up regulation of HSP90alpha expression in human DOHH-2 cells at 8 uM measured after 4 to 24 hrs by Western blot analysis. The class given is functional, cell-based. The settings on record: time 4-24 hrs.
Series [12] deals with Tubulin beta (Homo sapiens) (UniProt P68371+Q9H4B7+Q13509+P04350+Q3ZCM7+P07437+Q13885+Q9BVA1+Q9BUF5+A6NNZ2). Nature of the series: Binding affinity to beta-tubulin in human DOHH-2 cells by MS analysis. In kind it is cell-based.
Series [13] concerns DOHH-2. Nature of the series: Up regulation of HSP70 expression in human DOHH-2 cells at 8 uM measured after 4 to 24 hrs by Western blot analysis. The class given is functional, cell-based. As to conditions: time 4-24 hrs.
The target of series [14] is Tubulin alpha (Homo sapiens) (UniProt P0DPH7+P68366+Q71U36+P68363+Q9BQE3+Q6PEY2+A6NHL2+Q9NY65). Nature of the series: Binding affinity to alpha-tubulin in human MDA-MB-453 cells measured after 6 hrs by pull-down assay. In kind it is cell-based. As to conditions: dose <= 20.0 µM, DDE = dose-dependent effect.
The subject of series [15] is DOHH-2. Nature of the series: Induction of autophagy in human DOHH-2 cells assessed as change in transformation of LC3B1 to LC3B2 expression at 0.5 to 8 uM measured after 24 hrs by Western blot analysis. In kind it is functional, cell-based. As to conditions: dose 0.5-8 µM.
Series [16] deals with Glutathione S-transferase P (Homo sapiens) (UniProt P09211). Nature of the series: Binding affinity to GSTP1 in human DOHH-2 cells measured after 6 hrs by pull-down assay. As to conditions: DDE = dose-dependent effect. In kind it is cell-based.
Chain of Glutathione S-transferase P (Homo sapiens) (P09211 2-210 limits assumed): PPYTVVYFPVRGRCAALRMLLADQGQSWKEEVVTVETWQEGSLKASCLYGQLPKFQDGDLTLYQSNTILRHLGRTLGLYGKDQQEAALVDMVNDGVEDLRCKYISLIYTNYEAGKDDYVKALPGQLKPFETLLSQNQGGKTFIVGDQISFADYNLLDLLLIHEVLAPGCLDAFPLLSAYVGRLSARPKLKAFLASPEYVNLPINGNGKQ
Series [17] concerns the target T4, D-3-phosphoglycerate dehydrogenase (Homo sapiens). Nature of the series: Binding affinity to D-3-phosphoglycerate dehydrogenase in human DOHH-2 cells by MS analysis. The class given is cell-based.
The target in series [18] is Coronin-1A (Homo sapiens) (UniProt P31146). Nature of the series: Binding affinity to coronin-1A in human DOHH-2 cells by MS analysis. In kind it is cell-based.
Chain of Coronin-1A (Homo sapiens) (P31146 whole entry): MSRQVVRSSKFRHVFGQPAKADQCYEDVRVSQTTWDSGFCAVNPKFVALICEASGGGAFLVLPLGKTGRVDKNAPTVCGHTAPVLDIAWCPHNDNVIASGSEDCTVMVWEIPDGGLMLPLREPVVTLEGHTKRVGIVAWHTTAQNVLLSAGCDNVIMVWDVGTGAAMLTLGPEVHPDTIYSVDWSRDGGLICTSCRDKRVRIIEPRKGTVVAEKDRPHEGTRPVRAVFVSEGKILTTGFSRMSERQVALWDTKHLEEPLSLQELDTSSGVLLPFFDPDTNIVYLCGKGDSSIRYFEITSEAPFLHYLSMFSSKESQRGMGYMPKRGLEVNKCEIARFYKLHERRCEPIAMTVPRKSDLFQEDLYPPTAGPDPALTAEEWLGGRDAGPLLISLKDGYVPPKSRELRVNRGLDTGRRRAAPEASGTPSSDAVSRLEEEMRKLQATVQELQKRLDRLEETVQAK
For series [19] the target is unchanged. Nature of the series: Binding affinity to coronin-1A in human DOHH-2 cells measured after 6 hrs by pull-down assay. As to conditions: DDE = dose-dependent effect. In kind it is cell-based.

Molecules are shown by their SMILES. The source made the active and inactive calls. No cut-off for these calls is given here.

Chain of Glutathione S-transferase 3, mitochondrial (Homo sapiens) (O14880 whole entry): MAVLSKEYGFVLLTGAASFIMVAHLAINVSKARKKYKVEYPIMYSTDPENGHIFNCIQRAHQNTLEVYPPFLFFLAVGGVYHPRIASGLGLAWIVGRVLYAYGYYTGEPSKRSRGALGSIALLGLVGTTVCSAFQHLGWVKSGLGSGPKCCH

Consider `C#Cc1cccc(C#CS(N)(=O)=O)c1`, for which the Activity entry in series [1], in series [7], in series [10], in [14], in series [16] and in series [19] was “Dde” in each case. Moreover, the result (in the series listed under Homo sapiens [2]; in the series with DOHH-2 [3]; in series [4]; in the series filed under Homo sapiens [5]; in [6]; in series [8]) was Active. The outcome (in the series with DOHH-2 [11]; in series [12]; in the series with DOHH-2 [13]; in the series with DOHH-2 [15]; in series [17]; in series [18]) was Active. The t1/2 in series [9] is recorded as 3.91 min.
